Test results from US5721359A, “Crystalline ceftiofur free acid” (Pharmacia & Upjohn Company, priority 1995, dated 1998).
Entries after “also recorded” stand apart in the source; their conditions may differ. Structures can show the parent of a compound that is named as a salt. Where two headings read alike, the source gives them in different places. One block for each compound: values may come before it.

Assays:
[1] = design: species or system cattle; settings: bovine, in vivo, sc, 4.4 mg/kg
Description: Cattle were administered a single subcutaneous dose (4.4 mg/kg body weight) of crystalline ceftiofur free acid and amorphous ceftiofur free acid (both prepared and then formulated as described above in Examples 1, 3 and 4). The concentration of plasma ceftiofur and desfuroylceftiofur related metabolites were determined over time for 120 hours. The primary decision criteria (that most related to efficacy) was considered to be the time that the ceftiofur metabolite concentrations remained above 0.2 mcg/ml (t>0.2). Less important parameters calculated included "area under the concentration-time curve" (AUC) for each treatment and time to maximum concentrations (tmax).
The results are shown graphically in FIG. 7 below by plotting plasma concentration of desfuroylceftiofur acetamide (DCA) versus time using average data for 6 animals/treatment. […] This is especially important in light of the two forms obtaining statistically equivalent peak concentrations (9.1 mcg/ml for the amorphous ceftiofur free acid versus 7.3 mcg/ml for the crystalline ceftiofur free acid).

Solubility = assay type: physicochemical; settings: for Solubility-pH7: pH 7; for solubility in aqueous solvents, comparison crystalline free acid vs crystalline hydrochloride: in words
Excerpt: "Solubility" is a direct consequence of a solid's structure and the intermolecular forces holding the solid together and is defined as the mount of drug which exists in solution when equilibrium is achieved between solution and solid state material.

Hygroscopity = assay type: physicochemical; settings: for Hygroscopity: Table II
Excerpt: "Hygroscopity" is the ability of a compound to pick up moisture from or yield moisture to the atmosphere with changes in relative humidity.

In vivo release = settings: for In Vivo Release: Table II; for sustained release properties in vivo: in words
Excerpt: "In-vivo release" is the biological consequence of the dissolution rate of a compound which is characterized by time to maximum concentration and the maximum concentration in the biological fluid of interest.

[2] = In vitro dissolution of ceftiofur oil suspension formulations (Example 7); assay type: physicochemical; settings: 100 mg/ml oil formulation, 500 ml pH 7 aqueous media, 50 RPM paddle, FIG. 6
Description: 100 mg samples of crystalline ceftiofur free acid, amorphous ceftiofur free acid (prepared as described in Example 1) and crystalline ceftiofur hydrochloride, which were all prepared as oil formulations as described in Example 4 above, were loaded into teflon dissolution cells and sealed with a constant surface area dialysis membrane. The loaded cells were placed in a standard dissolution apparatus containing 500 ml of pH 7 aqueous dissolution media which was stirred by a 50 RPM rotating paddle.
The results obtained are shown below in FIG. 6 below.

[3] = Dissolution rate (Table II, FIG. 9); assay type: physicochemical; settings: shown graphically in FIG. 9
Excerpt: "Dissolution rate" is the kinetic translation of solubility for a well stirred system under sink conditions.

[4] = Stability in bulk, aqueous and other formulations; assay type: physicochemical
[5] = Comparison of time above minimum plasma concentration for ceftiofur derivatives; assay type: in vivo
Excerpt: Using the criteria for sustained release as the time which plasma concentrations remain above some minimum concentration (t>0.2), a comparison of various derivatives of ceftiofur can be made. […] This difference is of practical and statistical significance.

[6] = Plasma disposition of oil suspension of ceftiofur crystalline free acid vs aqueous solution of ceftiofur sodium in cattle (Example 6); assay type: in vivo, cattle (Holstein calves); settings: SC; for t>0.2 (time ceftiofur metabolite concentrations remained above 0.2 μg/mL): 2.2 mg ceftiofur activity/kg
Description: Sixteen Holstein calves were administered ceftiofur crystalline free acid in an oil suspension (100 mg/mL) or ceftiofur sodium (NAXCEL® Sterile Powder) as an aqueous solution (50 mg/mL) subcutaneously (SC) in a crossover study (each calf received each treatment), with a two-week washout period between doses (2.2 mg ceftiofur activity/kg body weight). Blood samples were obtained serially for 120 hours after drug administration for analysis of ceftiofur and metabolites (measured as desfuroylceftiofur acetamide by HPLC). The primary decision variable was the time ceftiofur metabolite concentrations remained above 0.2 μg/mL (t>0.2), with secondary decision variables being "relative area under the concentration-time curve" (AUC) of the treatments and injection site irritancy assessed antemortem by visual and manual inspection of the injection site over time. Both t>0.2 and AUC were calculated using both the predictive pharmacokinetic equation method and the direct graphical method of trapezoids (AUC) and log-linear interpolation (t>0.2).

[7] = Plasma disposition of aqueous suspensions of ceftiofur crystalline free acid in cattle (Example 5); assay type: in vivo, cattle (Holstein calves); settings: aqueous suspension 100 mg/mL, single dose 1.1 mg ceftiofur activity/kg
Description: Sixteen Holstein calves were administered ceftiofur crystalline free acid in an aqueous suspension (100 mg/mL) by the intramuscular (IM) or subcutaneous (SC) route of administration as a single dose of 1.1 mg ceftiofur activity/kg in a crossover study (each calf got each treatment), with a two-week washout between doses. Blood samples were obtained serially for 120 hours for analysis of ceftiofur and metabolites (measured as desfuroylceftiofur acetamide by HPLC). The primary decision variable was the time ceftiofur metabolite concentrations remained above 0.2 μg/mL (t>0.2), with secondary decision variables being "relative area under the concentration-time curve" (AUC) of the treatments and injection site irritancy assessed antemortem by visual and manual inspection of the injection sites over time. Both t>0.2 and AUC were calculated using both the predictive pharmacokinetic equation method and the direct graphical method of trapezoids (AUC) and log linear interpolation (t>0.2).

[8] = Plasma disposition of crystalline ceftiofur hydrochloride and crystalline ceftiofur free acid oil suspensions in cattle (Example 9); assay type: in vivo; settings: SC, 2.2 mg/kg, oil suspension, 16 animals/treatment; separate studies
Description: In separate but similarly designed studies conducted in the same laboratory, crystalline ceftiofur free acid (CFA) and crystalline ceftiofur hydrochloride (HCl) suspensions were administered subcutaneously to cattle at a dose of 2.2 mg/kg body weight. In each experiment, plasma samples were obtained for up to 120 hours after drug administration for determination of ceftiofur and its metabolites. The results are shown graphically in FIG. 8 below by plotting plasma concentration (on a logarithmic scale) versus time using average data for 16 animals/treatment. The primary decision criteria (that most related to efficacy) was considered to be the time that the ceftiofur metabolite concentrations remained above 0.2 mcg/ml (t>0.2). Less important parameters measures included "area under the concentration-time curve" (AUC) for each treatment and time to peak and peak concentrations.

[9] = Processing (micronization); assay type: physicochemical; settings: Table II, cell wraps: 'Difficult to micronize'
[10] = unstable in 6 weeks (cell wraps over two lines)
[11] = listed as Crystalline Free Acid

Compound: CON=C(C(=O)NC1C(=O)N2C(C(=O)O)=C(CSC(=O)c3ccco3)CSC12)c1csc(N)n1 (stereo not shown) [amorphous ceftiofur free acid, reference compound]
AUC (area under the concentration-time curve) [1]: 70 µg·h/mL
peak concentrations [1]: 9.1 µg/mL
t>0.2 (time metabolite concentrations remained above 0.2 mcg/ml) [1]: 41 h
time to peak concentration (tmax) [1]: 2 h
Solubility-pH7 (Solubility; listed as Amorphous Free Acid): ≈ 100 mg/mL
Hygroscopity (Hygroscopity; listed as Amorphous Free Acid): High
In Vivo Release (In vivo release; listed as Amorphous Free Acid): Fast
release from the oil formulation into the dissolution media [2]: very fast release
Dissolution Rate ([3]; listed as Amorphous Free Acid): Fast
Stability in Aqueous Formulations (>90% initial potency) [4, 10]: Unstable

Compound: CO/N=C(\C(=O)N[C@@H]1C(=O)N2C(C(=O)O)=C(CSC(=O)c3ccco3)CS[C@H]12)c1csc(N)n1 [ceftiofur sodium]
rank order of time above the selected minimum plasma concentration (t>0.2) ([5]; aqueous formulations): sodium<crystalline hydrochloride<crystalline free acid<zinc
rank order of duration above minimum plasma concentration (t>0.2) ([5]; oil formulations): sodium<crystallinehydrochloride<zinc<crystalline free acid
t>0.2 (time ceftiofur metabolite concentrations remained above 0.2 μg/mL) ([6]; aqueous solution 50 mg/mL): 45.50 h

Compound: zinc
rank order of duration above minimum plasma concentration (t>0.2) ([5]; in vivo): sodium<crystallinehydrochloride<zinc<crystalline free acid
rank order of time above the selected minimum plasma concentration (t>0.2) ([5]; in vivo): sodium<crystalline hydrochloride<crystalline free acid<zinc

The next lines start with results.

t>0.2 (time ceftiofur metabolite concentrations remained above 0.2 μg/mL) ([7]; IM): 26.98 h
t>0.2 (time ceftiofur metabolite concentrations remained above 0.2 μg/mL) ([7]; SC, P=0.257 vs IM): 30.43 h
AUC (area under the concentration-time curve) [1]: 183 µg·h/mL
AUC compared with amorphous ceftiofur free acid [1]: more than twice
peak concentrations [1]: 7.3 µg/mL
t>0.2 (time metabolite concentrations remained above 0.2 mcg/ml) [1]: 101 h
time to peak concentration (tmax) [1]: 8 h
solubility in non-polar solvents (Solubility; non-polar solvents): insoluble in non-polar solvents
Solubility-pH7 (Solubility; [11]): ≈ 8 mg/mL
solubility in water (Solubility; water): sparingly soluble in water
t>0.2 (time metabolite concentrations remained above 0.2 mcg/ml) [8]: 121.6 h
Processing (micronize) [9, 11]: Micronizes easier
rank order of duration above minimum plasma concentration (t>0.2) ([5]; oil formulations): the longest
terminal phase half-life (absorption phase, flip-flop model) compared with ceftiofur sodium ([6]; crystalline free acid in oil, 2.2 mg/kg): longer
t>0.2 (time ceftiofur metabolite concentrations remained above 0.2 μg/mL) ([6]; oil suspension 100 mg/mL, P<0.0001 vs ceftiofur sodium): 121.58 h
bioavailability compared with aqueous solution of ceftiofur sodium ([6]; oil suspension vs aqueous solution, 2.2 mg/kg, P>0.05): equally bioavailable
Hygroscopity (Hygroscopity; [11]): Low
hygroscopicity relative to crystalline hydrochloride salt and amorphous free acid (Hygroscopity; in words): superior
In Vivo Release (In vivo release; [11]): Prolonged
sustained release properties in vivo (In vivo release): has sustained release properties in vivo
release from the oil formulation into the dissolution media [2]: significantly reduced release
Dissolution Rate [3, 11]: Slow
Stability in Aqueous Formulations (>90% initial potency) ([4]; >90% initial potency): Stable for 6 months
stability (in bulk and formulations) relative to crystalline hydrochloride salt and amorphous free acid ([4]; in words): superior
Compound: CON=C(C(=O)NC1C(=O)N2C(C(=O)O)=C(CSC(=O)c3ccco3)CSC12)c1csc(N)n1 (stereo not shown) [crystalline ceftiofur free acid]
solubility in aqueous solvents, comparison crystalline free acid vs crystalline hydrochloride (Solubility): lower solubility in aqueous solvents than its crystalline hydrochloride salt
rank order of time above the selected minimum plasma concentration (t>0.2) ([5]; aqueous formulations): sodium<crystalline hydrochloride<crystalline free acid<zinc
Dissolution Rate [3]: slow dissolution rate; also recorded: slower

solubility (Solubility; pH 7, pH 7, cell of crystalline hydrochloride salt, read-out: Solubility-pH7): ~100 mg/mL
t>0.2 (time metabolite concentrations remained above 0.2 mcg/ml) [8]: 38.5 h
Processing (micronize) [9]: Micronizes easier
Hygroscopity (Hygroscopity): Moderate
In Vivo Release (In vivo release): Fast
release from the oil formulation into the dissolution media [2]: very fast release
Dissolution Rate [3]: Fast
Stability in Aqueous Formulations (>90% initial potency) [4, 10]: Unstable
Compound: CO/N=C(\C(=O)N[C@@H]1C(=O)N2C(C(=O)O)=C(CSC(=O)c3ccco3)CS[C@H]12)c1csc(N)n1 [crystalline ceftiofur hydrochloride, reference compound]
solubility in aqueous solvents, comparison crystalline free acid vs crystalline hydrochloride (Solubility): much greater solubility than the crystalline free acid
sustained release properties in vivo (In vivo release): does not have useful sustained release properties
